Data published in patent US20250353891A1 (MEDIMMUNE LIMITED, priority 2022, published 2025).
pEC50: −log10 of the molar value. “And” between values parts separate entries of the source, which are not always exact repeats. Equal values may be shown once. Each block holds one compound with its values, some of them ahead of it. Starred links: 1 amine or outer side, 2 acyl side, 3 side chain; linkers in the order of their positions; H or OH if unused. Non-standard residues stand in square brackets, D forms with d. Residues, ends and D or L forms follow the SMILES beside them. Groups on a side chain read outwards from the residue. *: point of attachment. C18 diacid = O=C(O)CCCCCCCCCCCCCCCCC(=O)*; γGlu = O=C(O)[C@H](CCC(=O)[*:2])N[*:1]; αMeF = C[C@](N)(Cc1ccccc1)C(=O)O; AEEA = NCCOCCOCC(=O)O; Aib = CC(C)(N)C(=O)O

Experiments:
[1] = Mouse acute food intake study; format: in vivo; conditions: male C57Bl/6 mice, s.c., cumulative food intake at 24 hr vs vehicle
Summary of the method: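 Single-housed male C57Bl/6 mice (8-9 weeks on arrival), chow-fed, acclimated and sham-dosed ≥2 times, were fasted 6-8 h, then given vehicle or peptide subcutaneously at 5 mL/kg 1-2 h before lights out. Food intake was recorded automatically over 48 h and analysed as cumulative intake.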

[2] = system: GLP-1R knockout (KO) mice; assay: Glucose change in GLP-1R knockout mice; format: in vivo, mouse; conditions: GLP-1R KO mice, s.c., 120 min vs 0 min, somatostatin pretreatment (octreotide) 30 min prior to cpd
Summary of the method: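 GLP-1R knockout mice (n=4-8/group, sorted by body weight) were fasted 2 h, and in some studies pretreated with octreotide 10 mg/kg 30 min before peptide injection. Mice were reused up to 3 times with at least 1-week wash-out.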

wildtype (WT) mice = assay: Glucose change in wildtype mice; format: in vivo, mouse; conditions: s.c., 120 min vs 0 min, somatostatin pretreatment (octreotide) 30 min prior to cpd
Summary of the method: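 Wildtype mice aged 8-14 weeks, fasted 2 h, sometimes pre-treated with octreotide 10 mg/kg 30 min before peptide injection. Blood glucose by glucometer at -30, 0, 30, 60, 120, 180, 240 and 360 min; n=4-8/group, mice reused up to 3 times with ≥1 week wash-out.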

in vivo [3] = conditions: male, C57BL/6, mouse, 10 nmol/kg
Text: (§1) Selected test peptides (n=8) were profiled for pharmacokinetic (PK) properties in the mouse after single intravenous (i.v.) or subcutaneous (s.c.) dose. A subset (n=4) meeting the acceptance criteria was subsequently profiled in the dog (single i.v. dose) and non-human primate (single i.v. and s.c. dose). […] Low-binding plasticware containers were used during preparation and sample handling to avoid non-specific binding.
After dosing, PK samples were collected from the dorsal metatarsal vein. Blood of each sample was transferred into plastic micro centrifuge tubes containing EDTA-K2, inverted several times for proper mixing of contents and then placed on wet ice. The blood samples were centrifuged at 4° C. to obtain plasma and stored at −75° C. prior to analysis.
(§2) Samples analysis: Samples were analyzed by LC-MS/MS. Calibration standards were injected at the beginning and end of each batch and the determined concentration for each prepared standard was used to construct a calibration curve. Plasma and dose aliquot sample concentrations were determined from the plasma calibration curve.
(§3) Data analysis: Plasma concentration data was analyzed by non-compartmental analysis (NCA) using Phoenix Winnonlin v. 8.3.3.33. Linear trapezoidal rule was used for increasing values and log trapezoidal rule was used for decreasing values, applying uniform weighting for lambda_z calculations. Subcutaneous bioavailability was calculated as the ratio AUC(s.c.)0-inf/AUC(i.v.)0-inf. Reported values (Table 18) represent the mean of the individual estimates.

in vivo [4] = conditions: male, Beagle, dog, iv, 10 nmol/kg
Text: as §1
Blood of each sample was transferred into plastic micro centrifuge tubes containing EDTA-K2, inverted several times for proper mixing of contents and then placed on wet ice.
as §2, §3

in vivo [5] = conditions: male, cynomolgus monkey, 10 nmol/kg
Text: as §1
Non-human primate: PK was studied in non-naïve male cynomolgus monkeys. After dosing, PK samples were collected from the femoral vein. Blood of each sample was transferred into plastic micro centrifuge tubes containing EDTA-K2, inverted several times for proper mixing of contents and then placed on wet ice. The blood samples were centrifuged under refrigerated (2° C. to 8° C.) conditions within 30 minutes following sample collection to obtain plasma and stored at −60° C. to −90° C.° C. prior to analysis.
as §2, §3

[6] = target: human GLP-1 receptor (hGLP-1R) (Homo sapiens, UniProt P43220); assay: cAMP production (HTRF) in CHO cells expressing hGLP-1R; format: cell-based; set-up: expressed in transfected cells
Sequence of human GLP-1 receptor (hGLP-1R) (P43220 24-463): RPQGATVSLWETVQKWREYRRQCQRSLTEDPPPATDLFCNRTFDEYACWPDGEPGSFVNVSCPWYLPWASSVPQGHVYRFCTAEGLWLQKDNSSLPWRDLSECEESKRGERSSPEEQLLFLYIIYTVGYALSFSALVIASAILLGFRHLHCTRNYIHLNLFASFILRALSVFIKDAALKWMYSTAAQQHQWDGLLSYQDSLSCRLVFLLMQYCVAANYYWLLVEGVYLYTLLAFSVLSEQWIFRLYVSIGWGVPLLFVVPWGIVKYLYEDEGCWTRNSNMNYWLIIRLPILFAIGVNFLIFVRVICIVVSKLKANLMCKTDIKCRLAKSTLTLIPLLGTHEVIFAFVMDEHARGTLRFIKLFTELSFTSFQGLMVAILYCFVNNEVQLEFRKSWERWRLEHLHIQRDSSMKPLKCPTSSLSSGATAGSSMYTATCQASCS
Summary of the method: (§4)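 Potency values represent EC50 from 4-parameter logistic curves of HTRF % Delta F signal. Receptor-expressing CHO cells (hGCGR 2×10^5 cells/mL, hGLP-1R 1×10^5 cells/mL) were exposed for 30 min at room temperature before two-step cAMP detection.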

[7] = target: human glucagon receptor (hGCGR) (Homo sapiens, UniProt P47871); assay: cAMP production (HTRF) in CHO cells expressing hGCGR; format: cell-based; set-up: expressed in transfected cells; conditions: Table 7, peptides modified at position 20; cAMP in CHO hGCGR cells; geometric mean; read-out: hGluc-R EC50
Sequence of human glucagon receptor (hGCGR) (P47871 26-477): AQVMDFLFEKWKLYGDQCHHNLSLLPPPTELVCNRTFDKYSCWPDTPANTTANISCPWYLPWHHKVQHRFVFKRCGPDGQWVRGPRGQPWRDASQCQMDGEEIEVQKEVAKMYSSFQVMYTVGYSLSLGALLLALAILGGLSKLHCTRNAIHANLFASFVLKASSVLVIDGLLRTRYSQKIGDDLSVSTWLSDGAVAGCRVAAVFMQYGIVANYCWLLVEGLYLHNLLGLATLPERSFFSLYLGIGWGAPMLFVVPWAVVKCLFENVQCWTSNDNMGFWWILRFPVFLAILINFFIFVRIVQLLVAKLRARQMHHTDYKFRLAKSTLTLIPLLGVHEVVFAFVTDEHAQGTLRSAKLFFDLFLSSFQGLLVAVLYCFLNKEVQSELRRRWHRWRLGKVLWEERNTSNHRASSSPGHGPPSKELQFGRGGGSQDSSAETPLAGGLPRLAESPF
Summary of the method: as §4

[8] = Proteolytic resistance to FasSSGF containing porcine pancreatic pepsin; format: in vitro ADME; conditions: pig, simulated gastric fluid, FasSSGF with pepsin, 37° C., read-out: % intact peptide over time (min)
Summary of the method: (§5)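 Peptide (250 μM stock in FasSSGF) mixed 1:1 with porcine pepsin stock (0.5 mg/mL in FasSSGF) and held at 37° C; samples at 0, 5, 10, 15 and 30 min quenched in ammonium bicarbonate, pH 8. Intact peptide remaining estimated by RP-HPLC peak area, UV 210 nm.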

[9] = target: T1, porcine pancreatic pepsin (Sus scrofa, UniProt P00791); assay: as above; format: in vitro ADME; conditions: FasSSGF with pepsin, 37° C., 0 min
T1 construct: purchased Sigma P7012
T1 sequence (P00791 60-385): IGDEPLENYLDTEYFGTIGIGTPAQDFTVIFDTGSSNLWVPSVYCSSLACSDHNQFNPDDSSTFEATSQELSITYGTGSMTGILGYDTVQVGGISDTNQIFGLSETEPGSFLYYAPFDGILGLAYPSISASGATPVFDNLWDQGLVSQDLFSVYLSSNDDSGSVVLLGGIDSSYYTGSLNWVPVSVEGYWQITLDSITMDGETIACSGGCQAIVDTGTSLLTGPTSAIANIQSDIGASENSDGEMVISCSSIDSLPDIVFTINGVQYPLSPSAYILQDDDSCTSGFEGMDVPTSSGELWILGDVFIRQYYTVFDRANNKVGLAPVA
Summary of the method: as §5

Pancreatin = assay: Proteolytic resistance to FasSSIF/Pancreatin; format: in vitro ADME; conditions: FasSSIF/Pancreatin, 37° C., 0 min
Summary of the method: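 Peptide (1.0 mg) in pre-warmed FasSSIF, proteolysis started with fresh FasSSIF/USP Pancreatin and held at 37 °C. Aliquots at 0, 5, 10, 15, 30 min quenched in 10% TFA; remaining intact peptide estimated by RP-HPLC peak area, UV 210 nm.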

bioavailability (in vivo [3]): 109%
half-life (in vivo [3]; iv): 9.5 h
half-life (in vivo [4]): 75 h
bioavailability (in vivo [5]): 95%
half-life (in vivo [5]; iv): 100 h
pEC50 ([6]; Table 7, peptides modified at position 20, cAMP in CHO hGLP-1R cells, geometric mean, read-out: hGLP-1R EC50): 10.49
% Relative Potency Ratio ([6]; Table 7, % GLP-1R activity relative to GLP-1 / % GlucR activity relative to glucagon): 1.8
pEC50 [7]: 10.54
SMILES: CC[C@H](C)[C@H](NC(=O)C(C)(C)NC(=O)[C@H](CCC(N)=O)NC(=O)[C@@H](NC(=O)[C@](C)(Cc1ccccc1)NC(=O)[C@H](CC(=O)O)NC(=O)[C@H](CCCCNC(=O)COCCOCCNC(=O)COCCOCCNC(=O)CC[C@H](NC(=O)CCCCCCCCCCCCCCCCC(=O)O)C(=O)O)NC(=O)[C@H](C)NC(=O)[C@H](C)NC(=O)[C@H](CCCNC(=N)N)NC(=O)[C@H](CO)NC(=O)[C@H](CC(=O)O)NC(=O)[C@H](CC(C)C)NC(=O)[C@](C)(Cc1ccccc1)NC(=O)[C@H](CCCCN)NC(=O)[C@H](CO)NC(=O)[C@@H](NC(=O)[C@H](CC(=O)O)NC(=O)[C@H](CO)NC(=O)[C@@H](NC(=O)[C@](C)(Cc1ccccc1)NC(=O)[C@H](CO)NC(=O)CNC(=O)[C@H](Cc1c[nH]cn1)NC(=O)C(C)(C)NC(=O)[C@@H](N)Cc1c[nH]cn1)[C@@H](C)O)C(C)C)C(C)C)C(=O)N[C@@H](C)C(=O)N[C@@H](CC(N)=O)C(=O)N[C@H](C(N)=O)[C@@H](C)O [Peptide 224, H-Aib-H-G-S-αMePhe-T-S-D-V—S-K-αMePhe-L-D-S-R-A-A-K (E-(O2Oc)-(O2Oc)-γE-C18diacid) 20-D-αMePhe-V-Q-Aib-I-A-N-T-amide] (H-H[Aib]HGS[αMeF]TSDVSK[αMeF]LDSRAAK([AEEA-AEEA-γGlu-C18 diacid])D[αMeF]VQ[Aib]IANT-NH2; N-terminus assumed)
24 hr % Vehicle Food Intake ([1]; dose 1 nmol/kg): 91.3%
24 hr % Vehicle Food Intake ([1]; dose 3 nmol/kg): 76.6%
24 hr % Vehicle Food Intake ([1]; dose 10 nmol/kg): 66.5% and 72.5%
GLP-1R KO % glucose change 120 min ([2]; 3 nmol/kg): 100.3%
GLP-1R KO % glucose change 120 min ([2]; 10 nmol/kg): 132.3%
WT % glucose change 120 min (wildtype (WT) mice; 3 nmol/kg): −46.3%
WT % glucose change 120 min (wildtype (WT) mice; 10 nmol/kg): −40.0%

SMILES: CC[C@H](C)[C@H](NC(=O)[C@H](Cc1ccccc1)NC(=O)[C@H](CCC(=O)O)NC(=O)[C@H](CCCCNC(=O)COCCOCCNC(=O)COCCOCCNC(=O)CC[C@H](NC(=O)CCCCCCCCCCCCCCCCC(=O)O)C(=O)O)NC(=O)[C@H](C)NC(=O)[C@H](C)NC(=O)[C@H](CCC(N)=O)NC(=O)CNC(=O)[C@H](CCC(=O)O)NC(=O)[C@H](CC(C)C)NC(=O)[C@H](Cc1ccc(O)cc1)NC(=O)[C@H](CO)NC(=O)[C@H](CO)NC(=O)[C@@H](NC(=O)[C@H](CC(=O)O)NC(=O)[C@H](CO)NC(=O)[C@@H](NC(=O)[C@H](Cc1ccccc1)NC(=O)[C@@H](NC(=O)CNC(=O)[C@H](CCC(=O)O)NC(=O)C(C)(C)NC(=O)[C@@H](N)Cc1cnc[nH]1)[C@@H](C)O)[C@@H](C)O)C(C)C)C(=O)N[C@@H](C)C(=O)N[C@@H](Cc1c[nH]c2ccccc12)C(=O)N[C@@H](CC(C)C)C(=O)N[C@H](C(=O)N[C@@H](CCCNC(=N)N)C(=O)NCC(=O)N[C@@H](CCCNC(=N)N)C(=O)NCC(=O)O)C(C)C [semaglutide, reference compound]
remaining at 5 min, 125 µM ([8]; 5 min): 15%
remaining at 10 min, 125 µM ([8]; 10 min): 13%
remaining at 0.25 h, 125 µM ([8]; 15 min): 12%
remaining at 0.5 h, 125 µM ([8]; 30 min): 14%
% intact peptide over time (min) [9]: 100%
% intact peptide over time (min) (Pancreatin): 100%
